# In patent publication US11267825B2 (AICURIS GMBH & CO. KG, priority 2017, dated 2022):
# Tests used:
# [1] = target: HBV core protein (UniProt P03146); format: biochemical; conditions: read-out: Assembly Activity (IC50); BODIPY-FL labelled core protein, assembly started with NaCl, read after 6 min
# Outline: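 Compounds tested at 8 concentrations in 0.5-log steps from 100, 31.6 or 10 μM against 1.0–2.0 μM BODIPY-FL-labelled Cys150 core dimers (residues 1–149), 50 mM HEPES pH 7.5. NaCl ([…] final) triggered assembly; quenching read at 6 min, 477/525 nm, with 2.5 M and 0 M NaCl as controls; EC50 by nonlinear fit.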
# [2] = test system: HBV; assay: Determination of HBV DNA from the supernatants of HepAD38 cells (anti-HBV activity); format: cell-based, hepatitis B virus; conditions: Hepatitis B virus, 144 h; HBV DNA in HepAD38 supernatant at day 6; read-out: Cell Activity (EC50)
# Outline: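 EC50 values were obtained by non-linear regression of HBV DNA copy numbers measured by qPCR against pCH-9/3091 plasmid standards. The DNA came from filtered supernatants collected on day 6. Before that, tetracycline-withdrawn HepAD38 cells had been exposed to serial half-log compound dilutions, with tetracycline-treated cells as the non-producing control.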
# Chain of HBV core protein (P03146 whole entry, looked up, the tested form may be a part): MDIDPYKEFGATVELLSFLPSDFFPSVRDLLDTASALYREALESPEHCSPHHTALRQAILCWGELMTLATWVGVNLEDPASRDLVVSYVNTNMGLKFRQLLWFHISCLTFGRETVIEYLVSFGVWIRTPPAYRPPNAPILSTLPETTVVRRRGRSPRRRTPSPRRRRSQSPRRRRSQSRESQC
structure (smiles),measurement,setting,value
"CC(C)(C)C(=O)Nc1nc2c(s1)CN(C(=O)c1cc3ccccc3[nH]1)CC2 [Example 275, N-[5-(1H-indole-2-carbonyl)-4H,5H,6H,7H-[1,3]thiazolo[5,4-c]pyridin-2-yl]-2,2-dimethylpropanamide]",IC50,[1],5 to 10 µM
same,EC50,[2],< 1 µM
"Nc1nc2c(s1)CN(C(=O)c1cc3cc(F)c(Cl)cc3[nH]1)CC2 [Example 277, 5-(6-chloro-5-fluoro-1H-indole-2-carbonyl)-4H,5H,6H,7H-[1,3]thiazolo[5,4-c]pyridin-2-amine]",IC50,[1],< 5 µM
same,EC50,[2],< 1 µM
"NC(=O)CNc1nc2c(s1)CN(C(=O)c1cc3ccccc3[nH]1)CC2 [Example 278, 2-{[5-(1H-indole-2-carbonyl)-4H,5H,6H,7H-[1,3]thiazolo[5,4-c]pyridin-2-yl]amino}acetamide]",IC50,[1],< 100 µM
same,EC50,[2],1 to 10 µM
"O=C(c1cc2ccccc2[nH]1)N1CCc2nc(NCC(CO)CC3CC3)sc2C1 (stereo not drawn) [Example 282, 2-(cyclopropylmethyl)-3-{[5-(1H-indole-2-carbonyl)-4H,5H,6H,7H-[1,3]thiazolo[5,4-c]pyridin-2-yl]amino}propan-1-ol]",IC50,[1],5 to 10 µM
same,EC50,[2],< 1 µM
"COC(C)(CO)CNc1nc2c(s1)CN(C(=O)c1cc3ccccc3[nH]1)CC2 (stereo not drawn) [Example 283, 3-{[5-(1H-indole-2-carbonyl)-4H,5H,6H,7H-[1,3]thiazolo[5,4-c]pyridin-2-yl]amino}-2-methoxy-2-methylpropan-1-ol]",IC50,[1],5 to 10 µM
same,EC50,[2],< 1 µM
"O=C(c1cc2ccccc2[nH]1)N1CCc2nc(NCC(CO)C3CC3)sc2C1 (stereo not drawn) [Example 284, 2-cyclopropyl-3-{[5-(1H-indole-2-carbonyl)-4H,5H,6H,7H-[1,3]thiazolo[5,4-c]pyridin-2-yl]amino}propan-1-ol]",IC50,[1],< 5 µM
same,EC50,[2],< 1 µM
"O=C(c1cc2ccccc2[nH]1)N1CCc2nc(NCCn3cccn3)sc2C1 [Example 285, 5-(1H-indole-2-carbonyl)-N-[2-(1H-pyrazol-1-yl)ethyl]-4H,5H,6H,7H-[1,3]thiazolo[5,4-c]pyridin-2-amine]",IC50,[1],< 5 µM
same,EC50,[2],< 1 µM
"O=C(c1cc2ccccc2[nH]1)N1CCc2nc(NCCc3c[nH]cn3)sc2C1 [Example 286, N-[2-(1H-imidazol-4-yl)ethyl]-5-(1H-indole-2-carbonyl)-4H,5H,6H,7H-[1,3]thiazolo[5,4-c]pyridin-2-amine]",IC50,[1],< 5 µM
same,EC50,[2],< 1 µM
"O=C(c1cc2ccccc2[nH]1)N1CCc2nc(NC[C@H]3CCCC[C@@H]3O)sc2C1 [Example 288, (1S,2R)-2-({[5-(1H-indole-2-carbonyl)-4H,5H,6H,7H-[1,3]thiazolo[5,4-c]pyridin-2-yl]amino}methyl)cyclohexan-1-ol]",IC50,[1],5 to 10 µM
same,EC50,[2],< 1 µM
"COC(=O)[C@@H]1C[C@H](Nc2nc3c(s2)CN(C(=O)c2cc4ccccc4[nH]2)CC3)CN1 [Example 289, Methyl (2S,4S)-4-{[5-(1H-indole-2-carbonyl)-4H,5H,6H,7H-[1,3]thiazolo[5,4-c]pyridin-2-yl]amino}pyrrolidine-2-carboxylate]",IC50,[1],< 5 µM
same,EC50,[2],< 100 µM
"CC(F)(F)c1cc(F)cc2[nH]c(C(=O)N3CCc4nc(N)sc4C3)cc12 [Example 290, 5-[4-(1,1-difluoroethyl)-6-fluoro-1H-indole-2-carbonyl]-4H,5H,6H,7H-[1,3]thiazolo[5,4-c]pyridin-2-amine]",IC50,[1],< 5 µM
same,EC50,[2],< 1 µM
"Nc1nc2c(s1)CN(C(=O)c1cc3c(C(F)F)cc(F)cc3[nH]1)CC2 [Example 292, 5-[4-(difluoromethyl)-6-fluoro-1H-indole-2-carbonyl]-4H,5H,6H,7H-[1,3]thiazolo[5,4-c]pyridin-2-amine]",IC50,[1],< 5 µM
same,EC50,[2],< 1 µM
"Nc1nc2c(s1)CN(C(=O)c1cc3c(C(F)F)cccc3[nH]1)CC2 [Example 293, 5-[4-(difluoromethyl)-1H-indole-2-carbonyl]-4H,5H,6H,7H-[1,3]thiazolo[5,4-c]pyridin-2-amine]",IC50,[1],< 5 µM
same,EC50,[2],< 1 µM
"CN1CCOCC1CNc1nc2c(s1)CN(C(=O)c1cc3ccccc3[nH]1)CC2 (stereo not drawn) [Example 294, 5-(1H-indole-2-carbonyl)-N-[(4-methylmorpholin-3-yl)methyl]-4H,5H,6H,7H-[1,3]thiazolo[5,4-c]pyridin-2-amine]",IC50,[1],< 5 µM
same,EC50,[2],< 1 µM
"O=C(c1cc2ccccc2[nH]1)N1CCc2nc(N3CC4COCCN4C3)sc2C1 (stereo not drawn) [Example 295, 2-(2-{hexahydro-1H-imidazo[4,3-c][1,4]oxazin-2-yl}-4H,5H,6H,7H-[1,3]thiazolo[5,4-c]pyridine-5-carbonyl)-1H-indole]",IC50,[1],< 100 µM
same,EC50,[2],1 to 10 µM
"O=C(c1cc2ccccc2[nH]1)N1CCc2nc(NC(CO)C3CCOC3)sc2C1 (stereo not drawn) [Example 297, 2-{[5-(1H-indole-2-carbonyl)-4H,5H,6H,7H-[1,3]thiazolo[5,4-c]pyridin-2-yl]amino}-2-(oxolan-3-yl)ethan-1-ol]",IC50,[1],< 5 µM
same,EC50,[2],< 1 µM
"Cc1cc(F)cc2[nH]c(C(=O)N3CCc4nc(NC5(CO)CCC5)sc4C3)cc12 [Example 298, (1-{[5-(6-fluoro-4-methyl-1H-indole-2-carbonyl)-4H,5H,6H,7H-[1,3]thiazolo[5,4-c]pyridin-2-yl]amino}cyclobutyl)methanol]",IC50,[1],< 5 µM
same,EC50,[2],< 1 µM
"O=C(c1cc2ccc(Cl)cc2[nH]1)N1CCc2nc(NC3(CO)CCC3)sc2C1 [Example 299, (1-{[5-(6-chloro-1H-indole-2-carbonyl)-4H,5H,6H,7H-[1,3]thiazolo[5,4-c]pyridin-2-yl]amino}cyclobutyl)methanol]",IC50,[1],< 5 µM
same,EC50,[2],< 1 µM
"CCc1cccc2[nH]c(C(=O)N3CCc4nc(NC5(CO)CCC5)sc4C3)cc12 [Example 300, (1-{[5-(4-ethyl-1H-indole-2-carbonyl)-4H,5H,6H,7H-[1,3]thiazolo[5,4-c]pyridin-2-yl]amino}cyclobutyl)methanol]",IC50,[1],< 5 µM
same,EC50,[2],< 1 µM
"O=C(c1cc2ccc(Cl)cc2[nH]1)N1CCc2nc(N[C@H]3CC[C@@H](O)CC3)sc2C1 [Example 301, (1s,4s)-4-{[5-(6-chloro-1H-indole-2-carbonyl)-4H,5H,6H,7H-[1,3]thiazolo[5,4-c]pyridin-2-yl]amino}cyclohexan-1-ol]",IC50,[1],< 5 µM
same,EC50,[2],< 1 µM
"O=C(c1cc2c(Cl)cccc2[nH]1)N1CCc2nc(N[C@H]3CC[C@@H](O)CC3)sc2C1 [Example 302, (1s,4s)-4-{[5-(4-chloro-1H-indole-2-carbonyl)-4H,5H,6H,7H-[1,3]thiazolo[5,4-c]pyridin-2-yl]amino}cyclohexan-1-ol]",IC50,[1],< 5 µM
same,EC50,[2],< 1 µM
"Cc1cc(F)cc2[nH]c(C(=O)N3CCc4nc(N[C@H]5CC[C@@H](O)CC5)sc4C3)cc12 [Example 303, (1s,4s)-4-{[5-(6-fluoro-4-methyl-1H-indole-2-carbonyl)-4H,5H,6H,7H-[1,3]thiazolo[5,4-c]pyridin-2-yl]amino}cyclohexan-1-ol]",IC50,[1],< 5 µM
same,EC50,[2],< 1 µM
"COC1CCC(Nc2nc3c(s2)CN(C(=O)c2cc4ccccc4[nH]2)CC3)CC1 (stereo not drawn) [Example 310, 5-(1H-indole-2-carbonyl)-N-(4-methoxycyclohexyl)-4H,5H,6H,7H-[1,3]thiazolo[5,4-c]pyridin-2-amine]",IC50,[1],5 to 10 µM
same,EC50,[2],< 1 µM
"O=C(c1cc2c(Cl)cccc2[nH]1)N1CCc2nc(NCC3(O)CCC3)sc2C1 [Example 311, 1-({[5-(4-chloro-1H-indole-2-carbonyl)-4H,5H,6H,7H-[1,3]thiazolo[5,4-c]pyridin-2-yl]amino}methyl)cyclobutan-1-ol]",IC50,[1],< 5 µM
same,EC50,[2],< 1 µM
"Cc1cc(F)cc2[nH]c(C(=O)N3CCc4nc(NCC5(O)CCC5)sc4C3)cc12 [Example 312, 1-({[5-(6-fluoro-4-methyl-1H-indole-2-carbonyl)-4H,5H,6H,7H-[1,3]thiazolo[5,4-c]pyridin-2-yl]amino}methyl)cyclobutan-1-ol]",IC50,[1],< 5 µM
same,EC50,[2],< 1 µM
"O=C(c1cc2c(Cl)cc(F)cc2[nH]1)N1CCc2nc(NCC3(O)CCC3)sc2C1 [Example 313, 1-({[5-(4-chloro-6-fluoro-1H-indole-2-carbonyl)-4H,5H,6H,7H-[1,3]thiazolo[5,4-c]pyridin-2-yl]amino}methyl)cyclobutan-1-ol]",IC50,[1],< 5 µM
same,EC50,[2],< 1 µM
"O=C(c1cc2c(F)cc(F)cc2[nH]1)N1CCc2nc(NCC3(O)CCC3)sc2C1 [Example 314, 1-({[5-(4,6-difluoro-1H-indole-2-carbonyl)-4H,5H,6H,7H-[1,3]thiazolo[5,4-c]pyridin-2-yl]amino}methyl)cyclobutan-1-ol]",IC50,[1],< 5 µM
same,EC50,[2],< 1 µM
"O=C(Nc1nc2c(s1)CN(C(=O)c1cc3ccccc3[nH]1)CC2)C1CCCCO1 (stereo not drawn) [Example 315, N-[5-(1H-indole-2-carbonyl)-4H,5H,6H,7H-[1,3]thiazolo[5,4-c]pyridin-2-yl]oxane-2-carboxamide]",IC50,[1],5 to 10 µM
same,EC50,[2],< 1 µM
"O=C(Nc1nc2c(s1)CN(C(=O)c1cc3c(Cl)cccc3[nH]1)CC2)C1CCOCC1 [Example 316, N-[5-(4-chloro-1H-indole-2-carbonyl)-4H,5H,6H,7H-[1,3]thiazolo[5,4-c]pyridin-2-yl]oxane-4-carboxamide]",IC50,[1],< 5 µM
same,EC50,[2],< 1 µM
"O=C(Nc1nc2c(s1)CN(C(=O)c1cc3ccc(Cl)cc3[nH]1)CC2)C1CCOCC1 [Example 318, N-[5-(6-chloro-1H-indole-2-carbonyl)-4H,5H,6H,7H-[1,3]thiazolo[5,4-c]pyridin-2-yl]oxane-4-carboxamide]",IC50,[1],< 5 µM
same,EC50,[2],< 1 µM
